The target of one test is human V2 receptor (Homo sapiens, UniProt P30518). The test is described as follows: V2 functional assay, cAMP accumulation in transfected HEK-293 cells. In kind it is cell-based. The arrangement: expressed in transfected cells; host or cells: HEK-293. The settings on record: for IC50: AVP 1 nM, read-out: Cell-Based Functional activity V2 IC50. As for the experimental part: V1a, V1b or V2 Functional Assay
HEK-293 cells were grown in DMEM media supplemented with 10% FBS and glutamine (Gibco BRL, Grand Island, N.Y.). Once transfected the cells were passed biweekly by trypsinization and seeded into 96 well plates at 33,000 cells per well. HEK-293 were transfected with human V1a, V1b or V2 DNA using DMRIE-C reagent from Life Technologies, Inc., Grand Island, N.Y. Cells were tested for their responsiveness to vasopressin 48 hours after transfection. Stable lines were generated by selecting cells grown in culture media containing geneticin (500 μg/ml, Life Technologies).
The accumulation of cAMP was measured in transfected HEK-293 expressing the human V2 receptor. The cells were cultured 4-7 days in 96-well plates. On the day of assay, cells were washed twice in assay media (DMEM/F12 containing 0.1% BSA). The cells were treated with the test compound for 5 minutes and then given AVP (1 nM) in assay media containing 1 mM isobutylmethylxanthine. After 5 minutes, 0.5 N HCl was added to disrupt the cells and solubilize cAMP. The cAMP content of 20 μl of the cell lysate in each well was measured using cAMP Flashplates (NEN Life Sciences). Data are expressed as pmol cAMP/well. While the assay is optimized to detect and quantitate antagonistic activity, agonistic activity would also be apparent at the higher concentrations of test compounds.
The data from the cAMP accumulation and the calcium mobilization assays are expressed as IC50 values as determined from dose response curves.
In general terms: Changes in cAMP serve as a functional read-out for many G protein-coupled receptors.

Another test deals with T1, NPY2 receptors (Homo sapiens, UniProt P49146).
T1 construct: Cell Membranes from KAN-TS cells having NPY2 receptors; endogenous in cells; host or cells: KAN-TS cells (membranes)
T1 sequence (P49146 1-381): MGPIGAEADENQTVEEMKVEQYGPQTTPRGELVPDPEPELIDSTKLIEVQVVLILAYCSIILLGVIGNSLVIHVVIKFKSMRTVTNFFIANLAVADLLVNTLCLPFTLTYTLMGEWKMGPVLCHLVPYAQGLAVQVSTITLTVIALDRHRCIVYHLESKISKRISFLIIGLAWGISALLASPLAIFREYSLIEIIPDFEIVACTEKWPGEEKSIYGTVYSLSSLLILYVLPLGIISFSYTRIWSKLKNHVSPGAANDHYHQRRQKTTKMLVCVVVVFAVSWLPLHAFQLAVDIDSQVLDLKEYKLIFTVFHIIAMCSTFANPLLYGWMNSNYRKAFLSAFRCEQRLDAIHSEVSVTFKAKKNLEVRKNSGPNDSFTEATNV
Description: Neuropeptide Y receptor binding assay (125I-PYY, KAN-TS cell membranes). As to conditions: 10 μM compound; for inhibition at 10 µM: read-out: NPY-2@10, % Inh. In short, it runs like this:
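Membranes from KAN-TS cells competed with 125I-PYY in binding buffer containing BSA, test compound at 10 μM final, 1 hr at room temperature. Nonspecific binding defined with 1 μM PYY final. Tubes centrifuged, washed with PBS and bound radioactivity gamma-counted.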

For the next test, the target named is human V1a receptor (Homo sapiens, UniProt P37288). Description: V1a binding assay (3H-AVP displacement, HEK-293 membranes). The arrangement: expressed in transfected cells; host or cells: HEK-293 (membranes). In short, it runs like this:
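Tracer 3H-AVP, 10,000 cpm/well; buffer 50 mM Tris/5 mM MgCl2/0.1% BSA pH 7.5 + Pefabloc, aprotinin, leupeptin, pepstatin A, bacitracin; NSB 1.25 μM AVP; 1 h RT; GF/C filtration (0.3% PEI); scintillation count with quench correction.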

Counter-ions that a name gives are not always drawn.

Chain of human V1a receptor (P37288 whole entry): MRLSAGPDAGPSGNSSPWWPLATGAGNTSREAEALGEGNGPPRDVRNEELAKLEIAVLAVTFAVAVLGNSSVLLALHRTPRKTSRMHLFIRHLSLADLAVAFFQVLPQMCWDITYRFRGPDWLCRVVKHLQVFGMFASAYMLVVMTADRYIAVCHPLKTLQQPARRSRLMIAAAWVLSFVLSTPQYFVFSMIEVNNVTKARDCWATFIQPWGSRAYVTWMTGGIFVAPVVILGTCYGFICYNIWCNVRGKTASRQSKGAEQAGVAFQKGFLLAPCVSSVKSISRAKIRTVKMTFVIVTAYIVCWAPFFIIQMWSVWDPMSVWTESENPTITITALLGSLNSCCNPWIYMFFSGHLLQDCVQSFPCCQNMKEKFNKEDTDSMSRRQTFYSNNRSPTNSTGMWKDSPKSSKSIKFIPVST

For “1-[(N1-Piperidinocarbothioyl-(1-L-carboxymethyl-2-phenylamino)-4-yl]-3-(3-aminopropyl)-1,3-dihydrobenzimidazol-2-one Hydrochloride [Compound 57]”, the “Cell-Based Functional activity V2 % Inh. @ 30” value on human V2 receptor (30 μM compound) was 0% @ 30. Further, at NPY2 receptors, the “NPY-2@10, % Inh” value is listed as 20%. For the same compound, the half-maximal inhibitory concentration (IC50) – broadly, the concentration at which inhibition is half-maximal – on human V1a receptor stood at 0.26 µM.

Consider `NCCCn1c(=O)n(C2CCN(C(=S)NC(c3ccccc3)c3ccccc3)CC2)c2ccccc21` [Compound 55, 1-[(N1-Piperidinocarbothioyldiphenylmethylamino)-4-yl]-3-(3-aminopropyl)-1,3-dihydrobenzimidazol-2-one Monohydrochloride], for which the half-inhibitory concentration (IC50) on human V2 receptor came out at 22.8 µM; at human V1a receptor it was 0.027 µM. Further, on NPY2 receptors, the inhibition at 10 µM was 82%.

With `CCN(CC)CCn1c(=O)n(C2CCN(C(=S)NC(c3ccccc3)c3ccccc3)CC2)c2ccccc21` [Compound 35, 1-(N1-Piperidinocarbothioyldiphenylmethylamino-4-yl)-3-(2-diethyaminoethyl)-1,3-dihydrobenzimidazol-2-one], the IC50 on human V2 receptor came to 0.623 µM; on human V1a receptor, 0.075 µM. For the same compound, the inhibition at 10 µM on NPY2 receptors is 74%.

`N=C(N)NCCCn1c(=O)n(C2CCN(C(=S)NC(c3ccccc3)c3ccccc3)CC2)c2ccccc21` [Compound 59, 1-[(N1-Piperidinocarbothioyldiphenylmethylamino)-4-yl]-3-(3-guanidinopropyl)-1,3-dihydrobenzimidazol-2-one]: the inhibition at 30 µM on human V2 receptor (HEK293, 30 μM compound, read-out: Cell-Based Functional activity V2 % Inh. @ 30) worked out at 0%. On NPY2 receptors, the inhibition at 10 µM worked out at 90%. At human V1a receptor, this compound came in with a concentration for half-maximal inhibition (IC50) of 0.032 µM.

`CCN(CC)CCn1c(=O)n(C2CCN(C(=S)NC(Cc3ccccc3)C(=O)OC)CC2)c2ccccc21` [Compound 42, 1-(N1-Piperidinocarbothioyl-(2-phenyl-1-L-carboxymethyl)amino-4-yl)-3-(2-diethyaminoethyl)-1,3-dihydrobenzimidazol-2-one]: the inhibition at 10 µM at human V2 receptor (HEK293, 10 μM compound, read-out: Cell-Based Functional activity V2 % Inh. @ 10) is 0%; at NPY2 receptors it was 10%. Moreover, the IC50 at human V1a receptor is 0.038 µM.

The values are drawn from US6653478B2, “Substituted benzimidazol-2-ones as vasopressin receptor antagonists and neuropeptide Y modulators” (Ortho-McNeil Pharmaceutical, Inc., priority 2000, dated 2003).
